Measurements: patent US8536168B2 (Novartis AG, priority 2007, dated 2013)
Like-named read-outs stand apart in the source and are kept apart here.

Experiments:
[1] = system: Gli-luciferase activity; assay: Reporter gene assay (RGA) in TMHh12 cells, antagonism of Gli-luciferase activity in the presence of a Smo agonist; format: cell-based
Procedure: Activity of the compounds was evaluated using a reporter gene assay (RGA) in TMHh12 cells.

[2] = molecular target: mouse Smoothened receptor (Mus musculus, UniProt P56726); assay: Smo binding assay, displacement of radio-labeled smoothened agonist, filter binding format (mouse); settings: displacement of small molecule agonist of Smoothened, read-out: Mouse Smo bdg., IC50
Chain of mouse Smoothened receptor (P56726 33-793): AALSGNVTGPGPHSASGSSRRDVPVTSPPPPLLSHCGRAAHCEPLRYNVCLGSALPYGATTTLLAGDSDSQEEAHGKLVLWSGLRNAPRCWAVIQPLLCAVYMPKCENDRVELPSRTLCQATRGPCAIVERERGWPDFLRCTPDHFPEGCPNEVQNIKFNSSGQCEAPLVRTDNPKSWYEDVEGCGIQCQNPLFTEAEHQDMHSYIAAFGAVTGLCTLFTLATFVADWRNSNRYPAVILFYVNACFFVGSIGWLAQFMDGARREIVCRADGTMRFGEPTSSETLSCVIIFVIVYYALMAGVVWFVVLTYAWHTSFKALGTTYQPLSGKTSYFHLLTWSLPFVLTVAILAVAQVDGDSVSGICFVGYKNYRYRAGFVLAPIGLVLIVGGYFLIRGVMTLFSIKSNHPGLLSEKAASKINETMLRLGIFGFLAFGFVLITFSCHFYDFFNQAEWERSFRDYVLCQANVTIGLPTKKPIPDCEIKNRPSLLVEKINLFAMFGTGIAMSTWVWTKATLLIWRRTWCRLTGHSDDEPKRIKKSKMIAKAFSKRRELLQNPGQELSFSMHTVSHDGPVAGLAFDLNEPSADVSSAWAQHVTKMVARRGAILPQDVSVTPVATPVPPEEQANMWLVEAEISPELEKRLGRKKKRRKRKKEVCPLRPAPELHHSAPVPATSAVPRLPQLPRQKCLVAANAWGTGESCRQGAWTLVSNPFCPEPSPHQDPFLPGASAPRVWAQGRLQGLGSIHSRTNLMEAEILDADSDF
From the text: A Smo binding assay was developed using radio-labeled smoothened agonist for compound competition.

[3] = molecular target: human Smoothened receptor (Homo sapiens, UniProt Q99835); assay: Smo binding assay, displacement of radio-labeled smoothened agonist, filter binding format (human); settings: displacement of small molecule agonist of Smoothened, read-out: Human Smo bdg., IC50
Chain of human Smoothened receptor (Q99835 28-787): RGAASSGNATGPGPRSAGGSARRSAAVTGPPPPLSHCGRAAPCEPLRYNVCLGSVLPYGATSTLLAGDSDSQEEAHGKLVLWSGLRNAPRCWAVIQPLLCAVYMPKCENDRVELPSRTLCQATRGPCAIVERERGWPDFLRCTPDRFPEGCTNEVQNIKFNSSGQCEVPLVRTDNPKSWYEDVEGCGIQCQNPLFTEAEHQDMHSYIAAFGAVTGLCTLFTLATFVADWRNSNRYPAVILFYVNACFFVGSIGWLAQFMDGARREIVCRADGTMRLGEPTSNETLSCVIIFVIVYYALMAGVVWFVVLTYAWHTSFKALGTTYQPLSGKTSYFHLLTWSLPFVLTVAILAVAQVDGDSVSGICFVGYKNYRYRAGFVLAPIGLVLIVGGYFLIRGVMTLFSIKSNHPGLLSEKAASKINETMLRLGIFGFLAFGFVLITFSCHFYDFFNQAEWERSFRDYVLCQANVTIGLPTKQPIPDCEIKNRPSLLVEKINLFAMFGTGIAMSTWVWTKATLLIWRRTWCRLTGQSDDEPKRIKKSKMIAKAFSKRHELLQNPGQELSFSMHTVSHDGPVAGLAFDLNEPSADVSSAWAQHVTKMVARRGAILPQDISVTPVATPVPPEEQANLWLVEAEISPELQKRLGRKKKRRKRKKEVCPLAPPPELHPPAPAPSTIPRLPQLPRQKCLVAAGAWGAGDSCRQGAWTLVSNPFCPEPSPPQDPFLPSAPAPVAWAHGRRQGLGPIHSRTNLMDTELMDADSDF
From the text: A Smo binding assay was developed using radio-labeled smoothened agonist for compound competition. Table 9 lists the IC50 for displacement of a small molecule agonist of Smoothened determined in a filter binding format for the mouse and human Smoothened receptor.

[4] = 25 nM small molecule Smo agonist, read-out: RGA (25 nM Smo agonist) IC50
[5] = read-out: RGA (1 nM Smo agonist) IC50, 1 nM small molecule Smo agonist

CC(C)(O)c1cnc(N2CCN(c3nnc(Cc4ccccc4)c4ccccc34)CC2)cn1 [Example 150]
IC50 [1, 4]: < 100 nM
IC50 [1, 5]: < 100 nM
IC50 [2]: < 100 nM
IC50 [3]: < 100 nM

CC(C)(O)c1cnc(N2CCN(c3nnc(Cc4ccccc4)c4ccccc34)CC2)nc1 [Example 151]
IC50 [1, 4]: 100 to 1000 nM
IC50 [1, 5]: < 100 nM
IC50 [2]: < 100 nM
IC50 [3]: < 100 nM

CC(C)(O)c1ccc(N2CCN(c3nnc(Cc4ccccc4)c4ccccc34)CC2)nn1 [Example 152]
IC50 [1, 4]: 100 to 1000 nM
IC50 [1, 5]: < 100 nM
IC50 [2]: < 100 nM
IC50 [3]: 100 to 1000 nM

C[C@@H]1CN(c2nnc(Cc3ccccc3)c3ccccc23)CCN1c1ccc(C(C)(C)O)cn1 [Example 154]
IC50 [1, 4]: < 100 nM
IC50 [1, 5]: < 100 nM
IC50 [2]: < 100 nM
IC50 [3]: < 100 nM

C[C@H]1CN(c2ccc(C(C)(C)O)cn2)CCN1c1nnc(Cc2ccccc2)c2ccccc12 [Example 155]
IC50 [1, 4]: < 100 nM
IC50 [1, 5]: < 100 nM
IC50 [2]: < 100 nM
IC50 [3]: < 100 nM

C[C@@H]1CN(c2nnc(Cc3ccccc3)c3ccccc23)CCN1c1cnc(C(C)(C)O)cn1 [Example 156]
IC50 [1, 4]: < 100 nM
IC50 [1, 5]: < 100 nM
IC50 [2]: < 100 nM
IC50 [3]: < 100 nM

CC(=O)c1cnc(N2CCN(c3nnc(Cc4ccccc4)c4ccccc34)C[C@H]2C)cn1 [Example 157]
IC50 [1, 4]: < 100 nM
IC50 [1, 5]: < 100 nM
IC50 [2]: < 100 nM
IC50 [3]: < 100 nM

COCC(=O)OCc1ccc(N2CCN(c3nnc(Cc4ccccc4)c4ccccc34)CC2)nc1 [Example 159, Methoxy-acetic acid 6-[4-(4-benzyl-phthalazin-1-yl)-piperazin-1-yl]-pyridin-3-ylmethyl ester]
IC50 [1, 4]: 1000 to 10000 nM
IC50 [1, 5]: 100 to 1000 nM
IC50 [2]: 100 to 1000 nM
IC50 [3]: 100 to 1000 nM

CN(C)C(=O)OCc1ccc(N2CCN(c3nnc(Cc4ccccc4)c4ccccc34)CC2)nc1 [Example 160, Dimethyl-carbamic acid 6-[4-(4-benzyl-phthalazin-1-yl)-piperazin-1-yl]-pyridin-3-ylmethyl ester]
IC50 [1, 4]: 100 to 1000 nM
IC50 [1, 5]: < 100 nM
IC50 [2]: 100 to 1000 nM
IC50 [3]: 100 to 1000 nM

COC(C)(C)c1ccc(N2CCN(c3nnc(Cc4ccccc4)c4ccccc34)CC2)nc1 [Example 161, 1-Benzyl-4-{-4-[5-(1-methoxy-1-methyl-ethyl)-pyridin-2-yl]-piperazin-1-yl}-phthalazine]
IC50 [1, 4]: < 100 nM
IC50 [1, 5]: < 100 nM
IC50 [2]: < 100 nM
IC50 [3]: < 100 nM

CC(=O)NC(C)(C)c1ccc(N2CCN(c3nnc(Cc4ccccc4)c4ccccc34)CC2)nc1 [Example 162, N-(1-{6-[4-(4-Benzyl-phthalazin-1-yl)-piperazin-1-yl]-pyridin-3-yl}-1-methyl-ethyl)-acetamide]
IC50 [1, 4]: < 100 nM
IC50 [1, 5]: < 100 nM
IC50 [2]: < 100 nM
IC50 [3]: < 100 nM

CC(O)c1ccc(N2CCN(c3nnc(Cc4ccccc4)c4ccccc34)CC2)nc1 (centres unmarked) [Example 163, 1-{6-[4-(4-Benzyl-phthalazin-1-yl)-piperazin-1-yl]-pyridin-3-yl}-ethanol]
IC50 [1, 4]: 100 to 1000 nM
IC50 [1, 5]: < 100 nM
IC50 [2]: < 100 nM
IC50 [3]: < 100 nM

CC1(c2ccc(N3CCN(c4nnc(Cc5ccccc5)c5ccccc45)CC3)nc2)OCCO1 [Example 164, 1-Benzyl-4-(4-(5-(2-methyl-1,3-dioxolan-2-yl)pyridin-2-yl)piperazin-1-yl)phthalazine]
IC50 [1, 4]: < 100 nM
IC50 [1, 5]: < 100 nM
IC50 [2]: < 100 nM
IC50 [3]: < 100 nM

CC(C)c1cnc(N2CCN(c3nnc(Cc4ccccc4)c4ccccc34)CC2)cn1 [Example 165, 4-(4-Benzyl-phthalazin-1-yl)-5′-isopropyl-3,4,5,6-tetrahydro-2H-[1,2′]bipyrazinyl]
IC50 [1, 4]: < 100 nM
IC50 [1, 5]: < 100 nM
IC50 [2]: < 100 nM
IC50 [3]: < 100 nM

CC(O)(CO)c1cnc(N2CCN(c3nnc(Cc4ccccc4)c4ccccc34)CC2)cn1 (centres unmarked) [Example 166, 2-[4-(4-Benzyl-phthalazin-1-yl)-3,4,5,6-tetrahydro-2H-[1,2′]bipyrazinyl-5′-yl]-propane-1,2-diol]
IC50 [1, 4]: 100 to 1000 nM
IC50 [1, 5]: < 100 nM
IC50 [2]: < 100 nM
IC50 [3]: < 100 nM

CC(O)(CO)c1ccc(N2CCN(c3nnc(Cc4ccccc4)c4ccccc34)CC2)nc1 (centres unmarked) [Example 167, 2-{6-[4-(4-Benzyl-phthalazin-1-yl)-piperazin-1-yl]-pyridin-3-yl}-propane-1,2-diol]
IC50 [1, 4]: 100 to 1000 nM
IC50 [1, 5]: < 100 nM
IC50 [2]: < 100 nM
IC50 [3]: < 100 nM

CN(C)CC(C)(O)c1cnc(N2CCN(c3nnc(Cc4ccccc4)c4ccccc34)CC2)cn1 (centres unmarked) [Example 169, 2-[4-(4-Benzyl-phthalazin-1-yl)-3,4,5,6-tetrahydro-2H-[1,2′]bipyrazinyl-5′-yl]-1-dimethylamino-propan-2-ol]
IC50 [1, 4]: 100 to 1000 nM
IC50 [1, 5]: < 100 nM
IC50 [2]: < 100 nM
IC50 [3]: < 100 nM

CC(O)(CN1CCC(O)CC1)c1cnc(N2CCN(c3nnc(Cc4ccccc4)c4ccccc34)CC2)cn1 (centres unmarked) [Example 170, 1-{2-[4-(4-Benzyl-phthalazin-1-yl)-3,4,5,6-tetrahydro-2H-[1,2′]bipyrazinyl-5′-yl]-2-hydroxy-propyl}-piperidin-4-ol]
IC50 [1, 4]: 100 to 1000 nM
IC50 [1, 5]: < 100 nM
IC50 [2]: 100 to 1000 nM
IC50 [3]: 100 to 1000 nM

O=C(Cc1ccc(N2CCN(c3nnc(Cc4ccccc4)c4ccccc34)CC2)nc1)N1CCCC1 [Example 171, 2-{6-[4-(4-Benzyl-phthalazin-1-yl)-piperazin-1-yl]-pyridin-3-yl}-1-pyrrolidin-1-yl-ethanone]
IC50 [1, 4]: 100 to 1000 nM
IC50 [1, 5]: < 100 nM
IC50 [2]: < 100 nM
IC50 [3]: < 100 nM

CC(C)(O)Cc1ccc(N2CCN(c3nnc(Cc4ccccc4)c4ccccc34)CC2)nc1 [Example 172, 1-{6-[4-(4-Benzyl-phthalazin-1-yl)-piperazin-1-yl]-pyridin-3-yl}-2-methyl-propan-2-ol]
IC50 [1, 4]: < 100 nM
IC50 [1, 5]: < 100 nM
IC50 [2]: < 100 nM
IC50 [3]: < 100 nM

Cc1ccc(Cc2nnc(N3CCN(c4ccc(C#N)cn4)CC3)c3ccccc23)cc1 [Example 173]
IC50 [1, 4]: 100 to 1000 nM
IC50 [1, 5]: < 100 nM
IC50 [2]: < 100 nM
IC50 [3]: < 100 nM

N#Cc1ccc(N2CCN(c3nnc(Cc4ccccc4Cl)c4ccccc34)CC2)nc1 [Example 174]
IC50 [1, 4]: 1000 to 10000 nM
IC50 [1, 5]: < 100 nM
IC50 [2]: 100 to 1000 nM
IC50 [3]: 100 to 1000 nM

COc1ccccc1Cc1nnc(N2CCN(c3ccc(C#N)cn3)CC2)c2ccccc12 [Example 175]
IC50 [1, 4]: 1000 to 10000 nM
IC50 [1, 5]: 100 to 1000 nM
IC50 [2]: 100 to 1000 nM
IC50 [3]: 1000 to 10000 nM

N#Cc1ccc(N2CCN(c3nnc(Cc4ccc(Cl)c(Cl)c4)c4ccccc34)CC2)nc1 [Example 176]
IC50 [1, 4]: 1000 to 10000 nM
IC50 [1, 5]: 100 to 1000 nM
IC50 [2]: 100 to 1000 nM
IC50 [3]: 100 to 1000 nM

N#Cc1ccc(N2CCN(c3nnc(Cc4ccc(Cl)cc4Cl)c4ccccc34)CC2)nc1 [Example 177]
IC50 [1, 4]: 100 to 1000 nM
IC50 [1, 5]: 100 to 1000 nM
IC50 [2]: < 100 nM
IC50 [3]: < 100 nM

N#Cc1ccc(N2CCN(c3nnc(Cc4ccc(Cl)c(C(F)(F)F)c4)c4ccccc34)CC2)nc1 [Example 178]
IC50 [1, 4]: 100 to 1000 nM
IC50 [1, 5]: 100 to 1000 nM
IC50 [2]: 100 to 1000 nM
IC50 [3]: 100 to 1000 nM

COC(=O)c1ccc(Cc2nnc(N3CCN(c4ccc(C#N)cn4)CC3)c3ccccc23)cc1 [Example 179]
IC50 [1, 4]: 10000 to 40000 nM
IC50 [1, 5]: 100 to 1000 nM
IC50 [2]: 100 to 1000 nM
IC50 [3]: 100 to 1000 nM

N#Cc1ccc(N2CCN(c3nnc(Cc4ccc(C(=O)O)cc4)c4ccccc34)CC2)nc1 [Example 180]
IC50 [1, 4]: 10000 to 40000 nM
IC50 [1, 5]: 1000 to 10000 nM
IC50 [2]: 10000 to 40000 nM
IC50 [3]: 10000 to 40000 nM

N#Cc1ccc(N2CCN(c3nnc(Cc4ccc(F)cc4)c4ccccc34)CC2)nc1 [Example 181]
IC50 [1, 4]: 100 to 1000 nM
IC50 [1, 5]: < 100 nM
IC50 [2]: < 100 nM
IC50 [3]: 100 to 1000 nM

N#Cc1ccc(N2CCN(c3nnc(Cc4cccc(F)c4)c4ccccc34)CC2)nc1 [Example 182]
IC50 [1, 4]: 100 to 1000 nM
IC50 [1, 5]: 100 to 1000 nM
IC50 [2]: 100 to 1000 nM
IC50 [3]: 100 to 1000 nM

CCOC(=O)c1ccc(N2CCN(c3nnc(Cc4ccc(F)cc4)c4ccccc34)CC2)nc1 [Example 183]
IC50 [1, 4]: 1000 to 10000 nM
IC50 [1, 5]: 100 to 1000 nM
IC50 [2]: < 100 nM
IC50 [3]: < 100 nM

CCOC(=O)c1ccc(N2CCN(c3nnc(Cc4ccccc4F)c4ccccc34)CC2)nc1 [Example 184]
IC50 [1, 4]: 100 to 1000 nM
IC50 [1, 5]: 100 to 1000 nM
IC50 [2]: < 100 nM
IC50 [3]: < 100 nM

CCOC(=O)c1ccc(N2CCN(c3nnc(Cc4cccc(F)c4)c4ccccc34)CC2)nc1 [Example 185]
IC50 [1, 4]: 1000 to 10000 nM
IC50 [1, 5]: 100 to 1000 nM
IC50 [2]: < 100 nM
IC50 [3]: < 100 nM

CCOC(=O)c1ccc(N2CCN(c3nnc(Cc4ccc(Cl)cc4Cl)c4ccccc34)CC2)nc1 [Example 186]
IC50 [1, 4]: 100 to 1000 nM
IC50 [1, 5]: 100 to 1000 nM
IC50 [2]: < 100 nM
IC50 [3]: < 100 nM

CCOC(=O)c1ccc(N2CCN(c3nnc(Cc4ccc(F)cc4F)c4ccccc34)[C@@H](C)C2)nc1 [Example 187]
IC50 [1, 4]: 100 to 1000 nM
IC50 [1, 5]: < 100 nM
IC50 [2]: < 100 nM
IC50 [3]: < 100 nM

CCOC(=O)c1ccc(N2CCN(c3nnc(Cc4ccccc4Cl)c4ccccc34)[C@@H](C)C2)nc1 [Example 188]
IC50 [1, 4]: 100 to 1000 nM
IC50 [1, 5]: < 100 nM
IC50 [2]: < 100 nM
IC50 [3]: < 100 nM

CC(C)(O)c1ccc(N2CCN(c3nnc(Cc4ccc(F)cc4)c4ccccc34)CC2)nc1 [Example 191, 2-(6-{4-[4-(4-Fluoro-benzyl)-phthalazin-1-yl]-piperazin-1-yl}-pyridin-3-yl)-propan-2-ol]
IC50 [1, 4]: < 100 nM
IC50 [1, 5]: < 100 nM
IC50 [2]: < 100 nM
IC50 [3]: < 100 nM

CC(C)(O)c1ccc(N2CCN(c3nnc(Cc4ccccc4Cl)c4ccccc34)CC2)nc1 [Example 192]
IC50 [1, 4]: 100 to 1000 nM
IC50 [1, 5]: < 100 nM
IC50 [2]: < 100 nM
IC50 [3]: < 100 nM
